Assay results taken from patent US20030176314A1, “Compounds for the treatment of pain” (priority 2001, published 2003).

These compounds were tested against T1, human NPFF2 receptor (Homo sapiens, UniProt Q9Y5X5) (assay: Functional assay (agonist potency, intrinsic activity) at cloned human NPFF2 receptor). Conditions: Table 6, intrinsic activity.
T1 construct: one of these, B089, was determined to be a full length clone with no point mutations; expressed in transfected cells; host or cells: not given
Format: cell-based

T1 sequence (Q9Y5X5 103-522): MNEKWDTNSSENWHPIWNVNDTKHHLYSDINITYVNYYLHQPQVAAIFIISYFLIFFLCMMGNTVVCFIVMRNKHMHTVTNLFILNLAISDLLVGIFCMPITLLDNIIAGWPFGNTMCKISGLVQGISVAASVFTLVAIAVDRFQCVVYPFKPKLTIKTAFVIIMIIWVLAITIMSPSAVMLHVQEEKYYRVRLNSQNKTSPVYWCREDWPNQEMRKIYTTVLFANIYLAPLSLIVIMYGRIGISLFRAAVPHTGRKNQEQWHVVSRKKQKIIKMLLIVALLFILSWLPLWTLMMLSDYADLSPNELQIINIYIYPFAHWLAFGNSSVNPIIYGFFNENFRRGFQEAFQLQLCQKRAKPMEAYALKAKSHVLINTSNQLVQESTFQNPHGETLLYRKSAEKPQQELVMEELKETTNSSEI

SMILES	hNPFF2 IA [% NPFF]
Cc1nc(NC(=N)N)nc2cc(-c3ccccc3)ccc12 [Compound 1023A, N-(4-methyl-7-phenyl-2-quinazolinyl)guanidine]	43
CCCCCc1ccc2nc(NC(=N)N)nc(C)c2c1 [Compound 2001A, N-(4-methyl-6-pentyl-2-quinazolinyl)guanidine]	84
CCc1ccc2nc(NC(=N)N)cc(C)c2c1 [Compound 4002A, N-(6-ethyl-4-methyl-2-quinolinyl)guanidine]	69

The remaining lines, values ahead:

hNPFF2 IA [% NPFF]	SMILES
75	CCCCCc1ccc2nc(NC(=N)N)cc(C)c2c1 [Compound 5002A, N-(4-methyl-6-pentyl-2-quinolinyl)guanidine]
45	CCCCCCc1ccc2nc(NC(=N)N)cc(C)c2c1 [Compound 5003A, N-(6-hexyl-4-methyl-2-quinolinyl)guanidine]

What follows are compounds tested against T2, norepinephrine (NE) transporter (Rattus norvegicus, UniProt Q63380) (assay: Binding at native norepinephrine transporter (NE uptake)). Conditions: Table 8.
T2 construct: evaluated at native, tissue-derived transporters; from tissue
Method: (§1) Transporters: The binding properties of compounds were evaluated at native, tissue-derived transporters, namely serotonin (5HT) transporter and norepinephrine (NE) transporter, according to protocols described in Owens (1997), the disclosure of which is hereby incorporated by reference in its entirety into this application.
(§2) The binding affinity (Ki) of these compounds were tested according to the protocols described herein at the following receptors; human α1A, α1B, α1D, α2A, α2B, and α2C adrenergic receptors; human Y1, Y2, Y4, and Y5 receptors; and N-Methyl-D-aspartic acid (NMDA) receptor channels. The binding interactions of these compounds were additionally tested at the norepinephrine (NE) transporter (NE uptake) and serotonin (5-hydroxytryptamine (5HT)) transporter (5HT uptake) according to protocols described herein

T2 sequence (Q63380 1-617): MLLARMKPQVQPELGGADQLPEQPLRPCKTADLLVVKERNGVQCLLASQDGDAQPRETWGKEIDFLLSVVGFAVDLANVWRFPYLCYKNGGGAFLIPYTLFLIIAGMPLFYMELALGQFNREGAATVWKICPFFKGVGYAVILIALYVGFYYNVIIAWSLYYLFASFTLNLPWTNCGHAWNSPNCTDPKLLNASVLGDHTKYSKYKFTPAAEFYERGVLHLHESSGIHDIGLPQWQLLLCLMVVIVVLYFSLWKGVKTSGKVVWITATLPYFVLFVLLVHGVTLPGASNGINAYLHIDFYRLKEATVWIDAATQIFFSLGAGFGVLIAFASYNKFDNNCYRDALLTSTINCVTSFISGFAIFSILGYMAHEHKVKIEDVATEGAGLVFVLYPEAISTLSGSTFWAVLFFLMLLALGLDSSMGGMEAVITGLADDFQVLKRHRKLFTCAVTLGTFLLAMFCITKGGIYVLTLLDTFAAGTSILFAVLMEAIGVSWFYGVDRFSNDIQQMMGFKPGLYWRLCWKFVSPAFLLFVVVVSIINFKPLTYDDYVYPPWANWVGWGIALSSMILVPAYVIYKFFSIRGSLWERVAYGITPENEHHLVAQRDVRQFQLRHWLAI

SMILES	Ki [µM]
CCCCCc1ccc2nc(NC(=N)N)nc(C)c2c1 [Compound 2001A, N-(4-methyl-6-pentyl-2-quinazolinyl)guanidine]	1.16
Cc1ccc2c(C)cc(NC(=N)N)nc2c1 [Compound 4006A, N-(4,7-dimethyl-2-quinolinyl)guanidine]	12.4

What follows are compounds tested against T3, rat NPFF2 receptor (Rattus norvegicus, UniProt Q9EQD2) (assay: Functional assay (agonist potency, intrinsic activity) at cloned rat NPFF2 receptor). Conditions: Table 7, intrinsic activity.
T3 construct: The full-length NPFF2 was amplified from rat spinal cord cDNA; expressed in transfected cells; host or cells: not given
Format: cell-based

T3 sequence (Q9EQD2 whole entry): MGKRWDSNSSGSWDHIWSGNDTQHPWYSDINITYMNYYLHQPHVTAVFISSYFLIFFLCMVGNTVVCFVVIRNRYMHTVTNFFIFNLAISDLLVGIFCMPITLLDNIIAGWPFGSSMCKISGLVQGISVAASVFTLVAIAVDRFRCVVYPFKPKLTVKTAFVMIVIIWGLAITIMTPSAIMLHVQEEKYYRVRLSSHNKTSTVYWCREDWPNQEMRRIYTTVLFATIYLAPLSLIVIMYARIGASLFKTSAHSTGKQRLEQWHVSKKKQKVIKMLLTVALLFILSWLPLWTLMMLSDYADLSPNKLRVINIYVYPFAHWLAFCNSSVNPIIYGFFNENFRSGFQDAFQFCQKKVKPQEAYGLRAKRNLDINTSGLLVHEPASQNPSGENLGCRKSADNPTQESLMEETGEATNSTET

SMILES	rNPFF2 IA [% NPFF]
CCc1ccc2nc(NC(=N)N)nc(C)c2c1 [Compound 1003A, N-(6-ethyl-4-methyl-2-quinazolinyl)guanidine]	83
Cc1nc(NC(=N)N)nc2cc(-c3ccccc3)ccc12 [Compound 1023A, N-(4-methyl-7-phenyl-2-quinazolinyl)guanidine]	35
CCCCCc1ccc2nc(NC(=N)N)nc(C)c2c1 [Compound 2001A, N-(4-methyl-6-pentyl-2-quinazolinyl)guanidine]	103
CCc1ccc2nc(NC(=N)N)cc(C)c2c1 [Compound 4002A, N-(6-ethyl-4-methyl-2-quinolinyl)guanidine]	84
Cc1ccc2c(C)cc(NC(=N)N)nc2c1 [Compound 4006A, N-(4,7-dimethyl-2-quinolinyl)guanidine]	32

Now from value to compound:

rNPFF2 IA [% NPFF]	SMILES
90	CCCCCc1ccc2nc(NC(=N)N)cc(C)c2c1 [Compound 5002A, N-(4-methyl-6-pentyl-2-quinolinyl)guanidine]
57	CCCCCCc1ccc2nc(NC(=N)N)cc(C)c2c1 [Compound 5003A, N-(6-hexyl-4-methyl-2-quinolinyl)guanidine]

These compounds were tested against T4, human α2C adrenergic receptor (Homo sapiens, UniProt P18825) (assay: Binding at human α2C adrenergic receptor). Conditions: Table 8; read-out: hα2C Ki.
T4 construct: host or cells: LM(tk-) cells, line L-α2C
T4 sequence (P18825 1-462): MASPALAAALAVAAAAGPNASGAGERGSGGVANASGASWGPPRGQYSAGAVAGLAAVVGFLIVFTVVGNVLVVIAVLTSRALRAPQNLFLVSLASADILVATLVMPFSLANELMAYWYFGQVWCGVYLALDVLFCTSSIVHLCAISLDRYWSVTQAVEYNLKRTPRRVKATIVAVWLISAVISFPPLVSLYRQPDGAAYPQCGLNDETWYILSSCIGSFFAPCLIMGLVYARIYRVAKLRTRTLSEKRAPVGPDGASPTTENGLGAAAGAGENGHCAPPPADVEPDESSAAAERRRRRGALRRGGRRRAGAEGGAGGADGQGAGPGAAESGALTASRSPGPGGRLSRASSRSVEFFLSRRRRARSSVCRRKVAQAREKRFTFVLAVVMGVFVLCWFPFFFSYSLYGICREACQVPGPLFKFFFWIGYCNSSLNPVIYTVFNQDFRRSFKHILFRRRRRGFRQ
Description: (§3) α2 Human Adrenergic Receptors: To determine the binding of compounds to human α2 receptors, LM(tk−) cell lines stably transfected with the genes encoding the α2A, α2B, and α2C receptors were used. The cell line expressing the α2A receptor is designated L-α2A, and was deposited on Nov. 6, 1992, under ATCC Accession No. CRL 11180. The cell line expressing the α2B receptor is designated L-NGC-α2B, and was deposited on Oct. 25, 1989, under ATCC Accession No. CRL 10275. The cell line expressing the α2C receptor is designated L-α2C, and was deposited on Nov. 6, 1992, under ATCC Accession No. CRL-11181. Cell lysates were prepared as described herin, and suspended in 25 mM glycyiglycine buffer (pH 7.6 at room temperature). Equilibrium competition binding assay were performed using […] (0.5 nM), and nonspecific binding was determined by incubation with 10 μM phentolamine. The bound radioligand was separated by filtration through GF/B filters using a cell harvester.
as §2

SMILES	Ki [µM]
CCc1ccc2nc(NC(=N)N)nc(C)c2c1 [Compound 1003A, N-(6-ethyl-4-methyl-2-quinazolinyl)guanidine]	8.45
CCCCCc1ccc2nc(NC(=N)N)nc(C)c2c1 [Compound 2001A, N-(4-methyl-6-pentyl-2-quinazolinyl)guanidine]	1.91
CCc1ccc2nc(NC(=N)N)cc(C)c2c1 [Compound 4002A, N-(6-ethyl-4-methyl-2-quinolinyl)guanidine]	1.4

Each compound was assayed on distension induced contractions of the rat bladder (assay: Distension-induced rhythmic contraction (DIRC) model, micturition reflex in anesthetized rats). Conditions: 3 mg/kg, i.v.
Format: in vivo
Description: This model is widely considered to be predictive for the actions of drugs to treat human urge incontinence (also refered to as detrusor instability or unstable bladder). Examples of drugs that are active in this model which also are used therapeutically in humans include oxybutynin and baclofen (Morikawa et al, 1992); imipramine and nortriptyline (Pietra et al, 1990); and nifedipine and terodiline (Guarneri et al, 1993).
Female Sprague Dawley rats weighing approximately 300 g were anesthetized with subcutaneous urethane (1.2 g/kg). The trachea was cannulated with PE240 tubing to provide a clear airway throughout the experiment. A midline abdominal incision was made and the left and right ureters were isolated. The ureters were ligated distally (to prevent escape of fluids from the bladder) and cannulated proximally with PE10 tubing. The incision was closed using 4-0 silk sutures, leaving the PE10 lines routed to the exterior for the elimination of urine. The bladder was canulated via the transurethral route using PE50 tubing inserted 2.5 cm beyond the urethral opening. This cannula was secured to the tail using tape and connected to a pressure transducer. To prevent leakage from the bladder, the cannula was tied tightly to the exterior urethral opening using 4-0 silk.
To initiate the micturition reflex, the bladder was first emptied by applying pressure to the lower abdomen, and then filled with normal saline in 100 μl increments (maximum=2 ml) until spontaneous bladder contractions occurred (typically 20-40 mmHg at a rate of one contraction every 2 to 3 minutes. Once a regular rhythm was established, vehicle (saline) or test compounds were administered i.v. to examine their effects on bladder activity. The effect of a compound which inhibited the micturition reflex was expressed as its “disappearance time”, defined as the time between successive bladder contractions in the presence of the test compound minus the time between contractions before compound administration.

SMILES	inhibition of distention induced contractions of the rat bladder
Cc1ccc2c(C)cc(NC(=N)N)nc2c1 [Compound 4006A, N-(4,7-dimethyl-2-quinolinyl)guanidine]	complete inhibition

Same assay, conditions: i.v. administration, anesthetized rat (figure legends)

SMILES	time for which inhibition of bladder activity persisted [min]
Cc1ccc2c(C)cc(NC(=N)N)nc2c1 [Compound 4006A, N-(4,7-dimethyl-2-quinolinyl)guanidine]	12

Each compound was assayed against T5, rat NPFF1 receptor (Rattus norvegicus, UniProt Q9EP86) (assay: Functional assay (agonist potency, intrinsic activity) at cloned rat NPFF1 receptor). Conditions: Table 7, intrinsic activity.
T5 construct: expressed in transfected cells; host or cells: not given
Format: cell-based

T5 sequence (Q9EP86 whole entry): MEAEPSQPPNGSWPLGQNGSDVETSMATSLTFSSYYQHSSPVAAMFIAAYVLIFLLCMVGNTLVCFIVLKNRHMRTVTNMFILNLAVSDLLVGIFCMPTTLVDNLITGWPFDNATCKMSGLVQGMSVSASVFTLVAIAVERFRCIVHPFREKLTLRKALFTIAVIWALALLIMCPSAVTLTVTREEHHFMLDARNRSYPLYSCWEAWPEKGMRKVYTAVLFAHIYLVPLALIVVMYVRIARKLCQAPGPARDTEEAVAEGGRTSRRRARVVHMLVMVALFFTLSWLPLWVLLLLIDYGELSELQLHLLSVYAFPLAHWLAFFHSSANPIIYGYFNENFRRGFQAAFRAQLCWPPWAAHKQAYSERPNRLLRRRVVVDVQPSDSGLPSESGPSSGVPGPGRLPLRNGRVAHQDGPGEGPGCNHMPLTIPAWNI

SMILES	rNPFF1 IA [% NPFF]
CCCCCc1ccc2nc(NC(=N)N)nc(C)c2c1 [Compound 2001A, N-(4-methyl-6-pentyl-2-quinazolinyl)guanidine]	71
CCCCCc1ccc2nc(NC(=N)N)cc(C)c2c1 [Compound 5002A, N-(4-methyl-6-pentyl-2-quinolinyl)guanidine]	41
CCCCCCc1ccc2nc(NC(=N)N)cc(C)c2c1 [Compound 5003A, N-(6-hexyl-4-methyl-2-quinolinyl)guanidine]	27

What follows are compounds tested against N-methyl-D-aspartate (NMDA) receptor channel complex (assay: Binding at native NMDA receptor channels). Conditions: Table 8.
Parameters: species or system rat
Method: NMDA Receptor Channels: The methods to determine binding affinity at native N-methyl-D-aspartate (NMDA) receptor channels are described in Wong E. H. et al. (1988), the disclosure of which is hereby incorporated by reference in its entirety into this application.
as §2

SMILES	Ki [µM]
CCc1ccc2nc(NC(=N)N)nc(C)c2c1 [Compound 1003A, N-(6-ethyl-4-methyl-2-quinazolinyl)guanidine]	19.5
CCCCCc1ccc2nc(NC(=N)N)nc(C)c2c1 [Compound 2001A, N-(4-methyl-6-pentyl-2-quinazolinyl)guanidine]	8.13
CCc1ccc2nc(NC(=N)N)cc(C)c2c1 [Compound 4002A, N-(6-ethyl-4-methyl-2-quinolinyl)guanidine]	12.8

Each compound was assayed against T6, human α2B adrenergic receptor (Homo sapiens, UniProt P18089) (assay: Binding at human α2B adrenergic receptor). Conditions: Table 8; read-out: hα2B Ki.
T6 construct: host or cells: LM(tk-) cells, line L-NGC-α2B
T6 sequence (P18089 1-450): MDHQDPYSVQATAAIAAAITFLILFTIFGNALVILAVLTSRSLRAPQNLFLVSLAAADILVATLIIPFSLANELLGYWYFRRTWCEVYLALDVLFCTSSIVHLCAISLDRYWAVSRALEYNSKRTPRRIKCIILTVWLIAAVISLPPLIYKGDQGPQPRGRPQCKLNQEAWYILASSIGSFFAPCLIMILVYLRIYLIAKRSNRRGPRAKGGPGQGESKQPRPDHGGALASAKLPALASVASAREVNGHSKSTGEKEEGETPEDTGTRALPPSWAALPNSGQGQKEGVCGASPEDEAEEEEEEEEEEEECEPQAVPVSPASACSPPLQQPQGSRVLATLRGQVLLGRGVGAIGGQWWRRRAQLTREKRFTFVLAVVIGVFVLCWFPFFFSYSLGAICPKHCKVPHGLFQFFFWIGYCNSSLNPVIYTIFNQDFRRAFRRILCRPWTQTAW
Description: as §3, §2

SMILES	Ki [µM]
CCc1ccc2nc(NC(=N)N)nc(C)c2c1 [Compound 1003A, N-(6-ethyl-4-methyl-2-quinazolinyl)guanidine]	31.8
CCCCCc1ccc2nc(NC(=N)N)nc(C)c2c1 [Compound 2001A, N-(4-methyl-6-pentyl-2-quinazolinyl)guanidine]	7.41
CCc1ccc2nc(NC(=N)N)cc(C)c2c1 [Compound 4002A, N-(6-ethyl-4-methyl-2-quinolinyl)guanidine]	10.4

Each compound was assayed against T7, human α2A adrenergic receptor (Homo sapiens, UniProt P08913) (assay: Binding at human α2A adrenergic receptor). Conditions: Table 8; read-out: hα2A Ki.
T7 construct: host or cells: LM(tk-) cells, line L-α2A
T7 sequence (P08913 1-465): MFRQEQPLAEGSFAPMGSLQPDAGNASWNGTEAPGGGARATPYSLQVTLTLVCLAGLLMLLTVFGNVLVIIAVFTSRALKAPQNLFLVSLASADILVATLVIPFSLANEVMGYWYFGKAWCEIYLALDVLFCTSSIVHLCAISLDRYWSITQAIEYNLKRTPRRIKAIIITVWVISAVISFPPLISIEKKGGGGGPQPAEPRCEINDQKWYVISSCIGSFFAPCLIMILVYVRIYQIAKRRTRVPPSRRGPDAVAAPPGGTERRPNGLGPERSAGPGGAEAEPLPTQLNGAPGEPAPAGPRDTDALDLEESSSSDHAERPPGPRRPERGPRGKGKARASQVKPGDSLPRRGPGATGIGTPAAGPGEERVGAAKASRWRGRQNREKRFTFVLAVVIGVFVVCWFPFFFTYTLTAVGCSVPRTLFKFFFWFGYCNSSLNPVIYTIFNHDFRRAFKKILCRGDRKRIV
Description: as §3, §2

SMILES	Ki [µM]
CCc1ccc2nc(NC(=N)N)nc(C)c2c1 [Compound 1003A, N-(6-ethyl-4-methyl-2-quinazolinyl)guanidine]	1.97
CCCCCc1ccc2nc(NC(=N)N)nc(C)c2c1 [Compound 2001A, N-(4-methyl-6-pentyl-2-quinazolinyl)guanidine]	0.808
CCc1ccc2nc(NC(=N)N)cc(C)c2c1 [Compound 4002A, N-(6-ethyl-4-methyl-2-quinolinyl)guanidine]	0.267

These compounds were tested against T8, serotonin (5HT) transporter (Rattus norvegicus, UniProt P31652) (assay: Binding at native serotonin transporter (5HT uptake)). Conditions: Table 8.
T8 construct: evaluated at native, tissue-derived transporters; from tissue
Method: as §1, §2

T8 sequence (P31652 whole entry): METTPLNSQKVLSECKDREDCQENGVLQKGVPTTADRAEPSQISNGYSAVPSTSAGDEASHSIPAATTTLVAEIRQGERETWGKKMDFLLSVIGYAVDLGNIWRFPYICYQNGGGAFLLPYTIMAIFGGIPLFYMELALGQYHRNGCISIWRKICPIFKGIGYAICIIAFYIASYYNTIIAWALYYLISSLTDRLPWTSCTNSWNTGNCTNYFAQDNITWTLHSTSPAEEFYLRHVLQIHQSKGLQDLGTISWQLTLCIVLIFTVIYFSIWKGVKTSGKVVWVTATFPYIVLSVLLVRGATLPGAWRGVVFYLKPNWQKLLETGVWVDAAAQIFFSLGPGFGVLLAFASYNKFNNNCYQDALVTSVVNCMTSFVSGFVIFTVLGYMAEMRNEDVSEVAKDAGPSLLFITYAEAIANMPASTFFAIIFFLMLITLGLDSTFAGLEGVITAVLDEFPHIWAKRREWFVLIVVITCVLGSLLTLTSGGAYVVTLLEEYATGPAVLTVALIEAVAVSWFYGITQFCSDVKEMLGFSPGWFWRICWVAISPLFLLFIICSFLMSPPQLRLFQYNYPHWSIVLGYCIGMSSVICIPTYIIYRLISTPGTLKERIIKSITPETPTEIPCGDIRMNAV

SMILES	Ki [µM]
CCCCCc1ccc2nc(NC(=N)N)nc(C)c2c1 [Compound 2001A, N-(4-methyl-6-pentyl-2-quinazolinyl)guanidine]	0.962
Cc1ccc2c(C)cc(NC(=N)N)nc2c1 [Compound 4006A, N-(4,7-dimethyl-2-quinolinyl)guanidine]	8.79
